Consider 2 compounds from publication PMC11843629, “Development of ketobenzothiazole-based peptidomimetic TMPRSS13 inhibitors with low nanomolar potency” (Journal of Enzyme Inhibition and Medicinal Chemistry, 2025).

Data set [1] concerns the target T1, matriptase (Homo sapiens, UniProt Q9Y5Y6).
T1 construct: made in house
T1 sequence (Q9Y5Y6 1-855): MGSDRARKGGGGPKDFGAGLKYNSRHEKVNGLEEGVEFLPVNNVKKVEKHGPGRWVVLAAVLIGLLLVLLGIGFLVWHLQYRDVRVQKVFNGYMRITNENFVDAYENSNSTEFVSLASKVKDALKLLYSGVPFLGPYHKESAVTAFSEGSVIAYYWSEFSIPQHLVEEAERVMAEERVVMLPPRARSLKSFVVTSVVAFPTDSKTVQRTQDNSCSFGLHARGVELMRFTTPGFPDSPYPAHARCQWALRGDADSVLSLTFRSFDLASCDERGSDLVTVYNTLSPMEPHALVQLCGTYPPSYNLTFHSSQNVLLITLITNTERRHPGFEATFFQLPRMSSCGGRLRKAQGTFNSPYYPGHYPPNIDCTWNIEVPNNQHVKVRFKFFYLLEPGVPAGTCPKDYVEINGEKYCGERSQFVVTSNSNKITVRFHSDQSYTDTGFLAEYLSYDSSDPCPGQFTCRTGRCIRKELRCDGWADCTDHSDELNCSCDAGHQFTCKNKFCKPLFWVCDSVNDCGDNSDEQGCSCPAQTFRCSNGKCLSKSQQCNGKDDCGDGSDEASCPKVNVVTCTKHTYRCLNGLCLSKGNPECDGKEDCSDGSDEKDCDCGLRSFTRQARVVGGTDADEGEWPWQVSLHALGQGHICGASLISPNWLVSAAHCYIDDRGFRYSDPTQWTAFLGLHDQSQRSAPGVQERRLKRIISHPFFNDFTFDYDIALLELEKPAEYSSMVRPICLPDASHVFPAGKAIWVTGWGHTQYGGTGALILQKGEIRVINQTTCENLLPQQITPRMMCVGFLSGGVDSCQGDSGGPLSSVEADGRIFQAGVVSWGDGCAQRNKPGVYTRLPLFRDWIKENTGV
The experiment in a line: In vitro inhibition assay, matriptase, Boc-QAR-AMC. It is filed as biochemical. Conditions: Morrison Ki equation, tight-binding. As for the experimental part: (§1) Recombinant TMPRSS13-AFAAS-6His (this study) and matriptase[34] were expressed and purified as described. Recombinant human furin, Factor Xa (R&D Systems) and thrombin (MilliporeSigma) were obtained from commercial sources. Assays were performed in a buffer composed of 50 mM HEPES pH 7.4, 1 mM β-mercaptoethanol, 1 mM CaCl2 and 500 μg/ml BSA for furin and 50 mM HEPES pH 7.4, 150 mM NaCl and 0.1% BSA for other proteases. Assays were performed at room temperature using fluorogenic substrates (Boc-RVRR-AMC for furin and TMPRSS13, Boc-QAR-AMC for other proteases). The enzymatic activity was measured via fluorescence (excitation at 360 nm and emission at 460 nm) at room temperature using an HTX Synergy microplate reader (Agilent). Kis for TMPRSS13 and Factor Xa (FXa) were derived from IC50 dose–response curves using the Cheng-Prusoff equation[35] for reversible competitive inhibitors. For matripase, a plot of the enzyme velocity as a function of the inhibitor concentration was fitted with nonlinear regression analysis via the Morrison Ki equation[36] for competitive tight-binding inhibitors.

Data set [2] has as its target T2, thrombin (Homo sapiens, UniProt P00734).
T2 construct: purchased MilliporeSigma
In words: In vitro inhibition assay, thrombin, Boc-QAR-AMC. It is filed as biochemical. On the procedure: as §1

The target of data set [3] is T3, furin (Homo sapiens, UniProt P09958).
T3 construct: purchased R&D Systems
In words: In vitro inhibition assay, furin, Boc-RVRR-AMC. It is filed as biochemical. On the procedure: as §1

Data set [4] relates to human trypsin. In words: Proteolysis assay (stability) with human trypsin. It is filed as in vitro ADME. The conditions noted are these: human trypsin (isolated protease), pH 7.4, compound final conc. 10 µM, 37 °C. As for the experimental part: For the proteolysis assay, human trypsin (#T6424, Sigma–Aldrich, Saint-Louis, Missouri, USA) was resuspended in 1 mM HCl and 20 mM CaCl2, pH 3, and diluted to a final concentration of 0.1 mg/ml in PBS buffer (pH 7.4, 10 mM PO43-, 150 mM NaCl). The control peptide R8 and the compounds of interest were added to a 96-well plate (37 °C) to a final concentration of 10 µM. Trypsin (0.1 µg/ml) was added to the wells for 0, 0.5, 1, 2, 4 and 6 h. The plate was quenched with AcN/EtOH (1:1) 1% formic acid and 0.25 mM N,N-dimethylbenzamide (IS) and centrifuged at 4 °C.

The target of data set [5] is T1, matriptase. On the set-up: method as in Shapira et al. 2022 Nature. Conditions: ref Shapira et al. 2022 Nature; cited from earlier work.
The target in data set [6] is T2, thrombin. On the set-up: method as in Shapira et al. 2022 Nature. The conditions noted are these: ref Shapira et al. 2022 Nature; cited from earlier work.
The target in data set [7] is T3, furin. On the set-up: method as in Shapira et al. 2022 Nature. Conditions: ref Shapira et al. 2022 Nature; cited from earlier work.

Read-outs that look alike come from different tables or passages of the source. Bounds are passed on as bounds.

T3 sequence (P09958 108-794): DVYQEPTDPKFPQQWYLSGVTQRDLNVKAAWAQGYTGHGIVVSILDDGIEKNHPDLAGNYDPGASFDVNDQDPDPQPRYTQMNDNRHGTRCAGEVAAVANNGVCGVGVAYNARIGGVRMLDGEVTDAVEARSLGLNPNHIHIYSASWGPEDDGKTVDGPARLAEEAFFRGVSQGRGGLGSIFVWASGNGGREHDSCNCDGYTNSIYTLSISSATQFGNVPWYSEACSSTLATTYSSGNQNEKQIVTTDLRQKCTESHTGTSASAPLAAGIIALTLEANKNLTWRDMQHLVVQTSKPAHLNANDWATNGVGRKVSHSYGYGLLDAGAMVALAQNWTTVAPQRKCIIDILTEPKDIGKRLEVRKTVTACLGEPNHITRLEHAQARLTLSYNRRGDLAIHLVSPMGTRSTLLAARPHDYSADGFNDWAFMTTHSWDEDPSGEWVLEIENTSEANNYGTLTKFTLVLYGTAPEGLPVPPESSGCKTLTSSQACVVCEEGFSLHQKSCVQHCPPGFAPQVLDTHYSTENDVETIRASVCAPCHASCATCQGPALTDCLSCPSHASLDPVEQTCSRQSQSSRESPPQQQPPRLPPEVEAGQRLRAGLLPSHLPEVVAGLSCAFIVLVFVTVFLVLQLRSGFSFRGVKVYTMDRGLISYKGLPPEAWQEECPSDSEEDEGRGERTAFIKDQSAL

Take `N=C(N)NCCCCC(=O)N[C@@H](CCC(N)=O)C(=O)N[C@@H](CCc1ccccc1)C(=O)N[C@@H](CCCNC(=N)N)C(=O)c1nc2ccccc2s1` [Compound N-0430, (H)-RQhFR-Kbt]: the Ki (as a rule, a measure of affinity in units of concentration, obtained from inhibition or displacement) is 0.28 ± 0.05 nM in data set [1], above 10 µM in data set [2] and above 10 µM in data set [3]. The “Ki Matriptase” value in data set [1] is “subnanomolar”. Besides, in data set [4], the half-life (in general, how long it takes for the measured level to halve) at 10 µM is 1.23 days.

In turn, `N=C(N)NCCCCC(=O)N[C@@H](CCC(N)=O)C(=O)N[C@@H](Cc1ccccc1)C(=O)N[C@@H](CCCNC(=N)N)C(=O)c1nc2ccccc2s1` [Compound N-0130, (H)-RQFR-Kbt] showed a half-life at 10 µM in data set [4] of 4.37 days. Further, the inhibition constant (Ki) is 0.13 ± 0.03 nM in data set [5], 8.23 ± 1.55 µM in data set [6] and above 10 µM in data set [7]. For the same compound, the “Ki Matriptase” value in data set [5] is on record as “subnanomolar”.
